According to patent US11013235B2 (priority 2015, dated 2021):
Where two headings read alike, the source gives them in different places.

Key:
Format in all cases: in vivo
Phytophthora parasitica = assay: Control of Phytophthora parasitica disease in tobacco (Pp-Nt); conditions: 1 μM spraying every 24 hours for one week, water control 91
Alternaria solani = assay: Control of Alternaria solani disease in tomato (As-SI); conditions: 1 μM spraying every 24 hours for one week, water control 68
Method in brief: (§1)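 Inoculated plants received a daily 1 μM compound spray for seven days. Outcomes were plant mortality for Nocardia, leaves with symptoms (%) for Alternaria, and measured lesion diameter for Botrytis, relative to water-treated plants.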

Radopholus similis = assay: Nematode control, nodules per plant: Radopholus similis; conditions: 1 μM foliar application every 5 days, evaluation 35 days after, control 45
Method in brief: (§2)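 Foliar application at 1 μM; spraying every 5 days; n = 10 plants/treatment; nodules/plant scored day 35.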

Botrytis cinerea [1] = assay: Control of Botrytis cinerea disease in tobacco (Bc-Nt); conditions: 1 μM spraying every 24 hours for one week, water control 6.7
Method in brief: as §1

Botrytis cinerea [2] = assay: Control of Botrytis cinerea disease in Arabidopsis (Bc-At); conditions: 1 μM spraying every 24 hours for one week, water control 8.7
Method in brief: as §1

[3] = test system: Candidatus 'Liberibacter asiaticus'; conditions: 1 μM spray, during 6 months, diseased citrus plants
Rhizoctonia solani [4] = assay: Control of Rhizoctonia solani disease in tobacco (Rs-Nt); conditions: 1 μM spraying every 24 hours for one week, water control 87
Pratylenchus coffeae = assay: Nematode control, nodules per plant: Pratylenchus coffeae; conditions: 1 μM foliar application every 5 days, evaluation 35 days after, control 42
Method in brief: as §2

Meloidogyne incognita = assay: Nematode control, nodules per plant: Meloidogyne incognita; conditions: 1 μM foliar application every 5 days, evaluation 35 days after, control 34
Method in brief: as §2

[5] = test system: Candidatus 'Liberibacter asiaticus'; conditions: spraying every 15 days, 12 months after treatment, Citrus sinensis with HLB
Botrytis cinerea [6] = assay: Control of Botrytis cinerea disease in tomato (Bc-SI); conditions: 1 μM spraying every 24 hours for one week, water control 7.4
Method in brief: as §1

Rhizoctonia solani [7] = assay: Control of Rhizoctonia solani disease in tomato (Rs-SI); conditions: 1 μM spraying every 24 hours for one week, water control 96
Nocardia sp = assay: Control of Nocardia sp disease in tobacco (N-Nt); conditions: 1 μM spraying every 24 hours for one week, water control 58
Method in brief: as §1

SMILES | Pp-Nt: percentage of mortality (Phytophthora parasitica) [%] | As-SI: percentage of leaves with the disease symptoms (Alternaria solani) [%] | Rs: number of nodules per plant (Radopholus similis) | Bc-Nt: mean of the diameter of the lesion (Botrytis cinerea [1]) [mm] | Bc-At: mean of the diameter of the lesion (Botrytis cinerea [2]) [mm] | Levels of the bacterium, application once a month compared to twice a month [3] | Bacterial reduction ([3]; once and twice a month) | Rs-Nt: percentage of mortality (Rhizoctonia solani [4]) [%] | Pc: number of nodules per plant (Pratylenchus coffeae) | Mi: number of nodules per plant (Meloidogyne incognita) | Titers of the bacterium ([5]; 0.001 μM) [copies per reaction] | Titers of the bacterium ([5]; 0.01 μM) [copies per reaction] | Titers of the bacterium ([5]; 1 μM) [copies per reaction] | Titers of the bacterium ([5]; 5 μM) [copies per reaction] | Titers of the bacterium ([5]; 10 μM) [copies per reaction] | Bc-SI: mean of the diameter of the lesion (Botrytis cinerea [6]) [mm] | Rs-SI: percentage of mortality (Rhizoctonia solani [7]) [%] | N-Nt: percentage of mortality (Nocardia sp) [%]
O=C(CCc1cc2cc3c(-c4ccccc4)coc3cc2oc1=O)NCC(O)CO (stereo not shown) [IB, N-(2,3-dihydroxypropyl)-3-{2-oxo-6-phenyl-2H-furo[3,2-g]chromen-3-yl}propanamide] | 2 | 2 | 24 | 2.0 | 1.1 | reduced significantly | bacterial reduction was observed in both tested variants | 3 | 13 | 3 | 598 | 15 | 0 | 98 | 9751 | 1.6 | 2 | 1
Cc1nc(N2CCN(n3cccc3)CC2)ncc1C(=O)N1CC2CC(O)C(O)CC2C1 (stereo not shown) [IIIL, 2-({4-methyl-2-[4-(1H-pyrrol-1-yl)piperazin-1-yl]pyrimidin-5-yl}carbonyl)-octahydro-1H-isoindole-5,6-diol] | 0 | 7 | 0 | 1.5 | 1.5 | – | – | 0 | 0 | 0 | 524 | 0 | 6 | 54 | 5840 | 2.5 | 0 | 0
